In US11180494B2, “Substituted amino acids as integrin inhibitors” (Pliant Therapeutics, Inc., priority 2018, dated 2021) one finds IC50 data, which are given here for 28 compounds.

Structures are written as SMILES.

Sequence of human integrin αvβ6 (P06756 31-992): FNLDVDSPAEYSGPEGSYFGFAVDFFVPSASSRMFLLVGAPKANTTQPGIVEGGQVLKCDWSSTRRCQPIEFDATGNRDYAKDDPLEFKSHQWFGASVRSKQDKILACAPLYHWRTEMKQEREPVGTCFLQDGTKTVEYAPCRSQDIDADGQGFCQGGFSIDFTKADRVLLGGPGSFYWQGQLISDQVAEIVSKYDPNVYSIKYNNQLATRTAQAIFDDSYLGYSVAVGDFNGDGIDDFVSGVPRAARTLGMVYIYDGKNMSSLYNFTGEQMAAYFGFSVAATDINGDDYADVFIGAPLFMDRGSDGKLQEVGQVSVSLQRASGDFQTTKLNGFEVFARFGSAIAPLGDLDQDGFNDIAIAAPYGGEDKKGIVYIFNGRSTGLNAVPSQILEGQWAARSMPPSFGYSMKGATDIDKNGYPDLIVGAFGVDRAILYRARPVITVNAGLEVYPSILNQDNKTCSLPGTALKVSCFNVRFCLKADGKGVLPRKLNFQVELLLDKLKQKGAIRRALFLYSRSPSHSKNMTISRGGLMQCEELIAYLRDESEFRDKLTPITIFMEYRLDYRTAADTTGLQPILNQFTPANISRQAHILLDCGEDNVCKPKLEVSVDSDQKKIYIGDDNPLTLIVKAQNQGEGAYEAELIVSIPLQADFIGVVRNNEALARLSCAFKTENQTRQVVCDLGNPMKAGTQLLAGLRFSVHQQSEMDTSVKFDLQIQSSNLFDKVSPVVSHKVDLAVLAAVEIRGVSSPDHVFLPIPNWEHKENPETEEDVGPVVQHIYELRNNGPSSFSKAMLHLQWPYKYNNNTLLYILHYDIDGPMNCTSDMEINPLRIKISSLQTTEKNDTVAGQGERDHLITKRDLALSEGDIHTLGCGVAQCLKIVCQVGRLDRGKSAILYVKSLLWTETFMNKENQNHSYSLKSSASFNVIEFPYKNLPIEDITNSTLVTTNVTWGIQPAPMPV
Sequence of human integrin αvβ6 (P18564 22-707): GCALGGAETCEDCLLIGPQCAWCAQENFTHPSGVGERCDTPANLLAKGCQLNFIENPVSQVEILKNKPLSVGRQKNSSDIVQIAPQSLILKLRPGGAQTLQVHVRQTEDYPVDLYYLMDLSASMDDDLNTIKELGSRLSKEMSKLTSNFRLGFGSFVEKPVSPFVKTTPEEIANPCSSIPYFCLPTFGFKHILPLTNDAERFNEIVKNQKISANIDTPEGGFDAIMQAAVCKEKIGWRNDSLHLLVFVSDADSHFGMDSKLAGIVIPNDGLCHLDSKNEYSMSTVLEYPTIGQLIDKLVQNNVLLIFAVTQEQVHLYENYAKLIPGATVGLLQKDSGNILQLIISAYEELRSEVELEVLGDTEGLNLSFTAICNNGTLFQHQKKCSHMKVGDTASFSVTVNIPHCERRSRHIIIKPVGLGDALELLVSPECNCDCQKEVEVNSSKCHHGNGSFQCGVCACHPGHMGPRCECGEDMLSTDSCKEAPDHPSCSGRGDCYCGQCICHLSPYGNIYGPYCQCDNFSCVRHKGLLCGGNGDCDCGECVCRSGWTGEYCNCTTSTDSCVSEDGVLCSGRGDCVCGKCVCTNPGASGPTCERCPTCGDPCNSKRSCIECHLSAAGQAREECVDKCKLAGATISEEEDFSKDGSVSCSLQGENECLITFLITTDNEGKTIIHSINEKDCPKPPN

The test has as its target human integrin αvβ6 (Homo sapiens (Human), UniProt P06756+P18564). Put plainly: Proximity-based integrin receptor binding assay (ALPHASCREEN) for inhibitor potency. Particulars: inhibition of binding of TGF-b1 LAP to human integrin αvβ6; values given in ranges. The protocol:
To gauge the potency of inhibitors of binding to human integrin αvβ6, inhibitor compounds and integrin were incubated together with TGF-b1 LAP and biotinylated anti-LAP antibody plus acceptor and donor beads, following the manufacture's recommendations. The donor beads were coated with streptavidin. […] All incubations occurred at room temperatures in 50 mM Tris-HCl, pH 7.5, 0.1% BSA supplemented with 1 mM each CaCl2 and MgCl2.
The order of reagent addition was as follows:
1. Alpha-v-beta-6 integrin, test inhibitor compound, LAP, biotinylated anti-LAP antibody and acceptor beads were all added together.
2. After 2 hours, donor beads were added. After another 30 minute incubation, samples were then read.
Integrin binding was evaluated by exciting donor beads at 680 nm, and measuring the fluorescent signal produced, between 520-620 nm, using a Biotek Instruments (Winooski, Vt., USA) SynergyNeo2 multimode plate reader. […] Data analysis for IC50 determinations was carried out by nonlinear four parameter logistic regression analysis using Dotmatics ELN Software (Core Informatics Inc., Branford, Conn.).
For the compound `CC(CO[C@H]1C[C@H](CCc2ccc3c(n2)NCCC3)C1)C(NC(=O)OC(C)(C)C)C(=O)O` (single isomer, unassigned) [Example 145B, 2-((tert-butoxycarbonyl)amino)-3-methyl-4-(trans-3-(2-(5,6,7,8-tetrahydro-1,8-naphthyridin-2-yl)ethyl)cyclobutoxy)butanoic Acid], the IC50 lay within 50 to 250 nM.
As to `CC(C)(C)CC(=O)N[C@@H](CCO[C@H]1C[C@H](CCc2ccc3c(n2)NCCC3)C1)C(=O)O` [Compound 122, N-(3,3-dimethylbutanoyl)-O-(trans-3-(2-(5,6,7,8-tetrahydro-1,8-naphthyridin-2-yl)ethyl)cyclobutyl)homoserine], the half-maximal inhibitory concentration (IC50) was in the range of 50 to 250 nM.
As for `O=C(N[C@@H](CCO[C@H]1C[C@@H](CCc2ccc3c(n2)NCCC3)C1)C(=O)O)c1ccc(F)cc1` [Compound 15, N-(4-fluorobenzoyl)-O-(cis-3-(2-(5,6,7,8-tetrahydro-1,8-naphthyridin-2-yl)ethyl)cyclobutyl)homoserine], the IC50 was under 50 nM.
To `Cn1ncc2c(C(=O)N[C@@H](CCO[C@H]3C[C@H](CCc4ccc5c(n4)NCCC5)C3)C(=O)O)cccc21` [Compound 38, N-(1-methyl-1H-indazole-4-carbonyl)-O-(trans-3-(2-(5,6,7,8-tetrahydro-1,8-naphthyridin-2-yl)ethyl)cyclobutyl)homoserine] belongs 50 to 250 nM; to `O=C(N[C@@H](CCO[C@H]1C[C@H](CCc2ccc3c(n2)NCCC3)C1)C(=O)O)c1ccccc1Cl` [Compound 21, N-(2-chlorobenzoyl)-O-(trans-3-(2-(5,6,7,8-tetrahydro-1,8-naphthyridin-2-yl)ethyl)cyclobutyl)homoserine], under 50 nM; to `O=C(N[C@@H](CCO[C@H]1C[C@H](CCc2ccc3c(n2)NCCC3)C1)C(=O)O)c1cc(F)ccc1F` [Compound 33, N-(2,5-difluorobenzoyl)-O-(trans-3-(2-(5,6,7,8-tetrahydro-1,8-naphthyridin-2-yl)ethyl)cyclobutyl)homoserine], under 50 nM.
Consider `O=C(N[C@@H](CCO[C@H]1C[C@H](CCc2ccc3c(n2)NCCC3)C1)C(=O)O)c1ccccc1-c1ccccn1` [Compound 166, N-(2-(pyridin-2-yl)benzoyl)-O-(trans-3-(2-(5,6,7,8-tetrahydro-1,8-naphthyridin-2-yl)ethyl)cyclobutyl)homoserine], for which the IC50 was 50 to 250 nM.
For the compound `N#CC1(C(=O)N[C@@H](CCO[C@H]2C[C@H](CCc3ccc4c(n3)NCCC4)C2)C(=O)O)CCOCC1` [Compound 171, N-(4-cyanotetrahydro-2H-pyran-4-carbonyl)-O-(trans-3-(2-(5,6,7,8-tetrahydro-1,8-naphthyridin-2-yl)ethyl)cyclobutyl)homoserine], the IC50 was under 50 nM.
In the case of `O=C(N[C@@H](CCO[C@H]1C[C@H](CCc2ccc3c(n2)NCCC3)C1)C(=O)O)c1ccc(F)cc1F` [Compound 24, N-(2,4-difluorobenzoyl)-O-(trans-3-(2-(5,6,7,8-tetrahydro-1,8-naphthyridin-2-yl)ethyl)cyclobutyl)homoserine] it was under 50 nM.
In the case of `CC(C)(C)c1cc(N[C@@H](CCO[C@H]2C[C@H](CCc3ccc4c(n3)NCCC4)C2)C(=O)O)ncn1` [Example 229, N-(6-(tert-butyl)pyrimidin-4-yl)-O-(trans-3-(2-(5,6,7,8-tetrahydro-1,8-naphthyridin-2-yl)ethyl)cyclobutyl)homoserine] it was 50 to 250 nM.
In the case of `O=C(O)[C@H](CCO[C@H]1C[C@H](CCc2ccc3c(n2)NCCC3)C1)NC(=O)C1(C(F)(F)F)CCOCC1` [Compound 174, O-(trans-3-(2-(5,6,7,8-tetrahydro-1,8-naphthyridin-2-yl)ethyl)cyclobutyl)-N-(4-(trifluoromethyl)tetrahydro-2H-pyran-4-carbonyl)homoserine], the IC50 was under 50 nM.
In the case of `O=C(O)[C@H](CCO[C@H]1C[C@H](CCc2ccc3c(n2)NCCC3)C1)Nc1ncnc2ccccc12` [Example 224, N-(quinazolin-4-yl)-O-(trans-3-(2-(5,6,7,8-tetrahydro-1,8-naphthyridin-2-yl)ethyl)cyclobutyl)homoserine] it was under 50 nM.
Regarding `CC(=O)N1CC(OC(=O)N[C@@H](CCO[C@H]2C[C@H](CCc3ccc4c(n3)NCCC4)C2)C(=O)O)C1` [Compound 150, N-(((1-acetylazetidin-3-yl)oxy)carbonyl)-O-(trans-3-(2-(5,6,7,8-tetrahydro-1,8-naphthyridin-2-yl)ethyl)cyclobutyl)homoserine], the IC50 was 250 to 1000 nM.
As to `C[C@@H](OC(=O)N[C@@H](CCO[C@H]1C[C@H](CCc2ccc3c(n2)NCCC3)C1)C(=O)O)c1ccccc1` [Compound 140, N—(((R)-1-phenylethoxy)carbonyl)-O-(trans-3-(2-(5,6,7,8-tetrahydro-1,8-naphthyridin-2-yl)ethyl)cyclobutyl)homoserine], the half-maximal inhibitory concentration (IC50) is 250 to 1000 nM.
Regarding `O=C(NC(CCOCCCCc1ccc2c(n1)NCCC2)C(=O)O)c1cc(F)cc(C(F)(F)F)c1` (stereo not shown) [Compound 9, N-(3-fluoro-5-(trifluoromethyl)benzoyl)-O-(4-(5,6,7,8-tetrahydro-1,8-naphthyridin-2-yl)butyl)homoserine], the 50% inhibitory concentration (IC50) was in the range of 50 to 250 nM.
On to `CC(C)(C)OC(=O)N1CCC(C(=O)N[C@@H](CCO[C@H]2C[C@H](CCc3ccc4c(n3)NCCC4)C2)C(=O)O)CC1` [Compound 160, N-(1-(tert-butoxycarbonyl)piperidine-4-carbonyl)-O-(trans-3-(2-(5,6,7,8-tetrahydro-1,8-naphthyridin-2-yl)ethyl)cyclobutyl)homoserine], for which the IC50 was 50 to 250 nM.
To `CC(=O)NC[C@@H](C)OC(=O)N[C@@H](CCO[C@H]1C[C@H](CCc2ccc3c(n2)NCCC3)C1)C(=O)O` [Compound 154, N—((((R)-1-acetamidopropan-2-yl)oxy)carbonyl)-O-(trans-3-(2-(5,6,7,8-tetrahydro-1,8-naphthyridin-2-yl)ethyl)cyclobutyl)homoserine] belongs 250 to 1000 nM; to `CC(C)(C)OC(=O)N1CC(C)(C(=O)N[C@@H](CCO[C@H]2C[C@H](CCc3ccc4c(n3)NCCC4)C2)C(=O)O)C1` [Compound 172, N-(1-(tert-butoxycarbonyl)-3-methylazetidine-3-carbonyl)-O-(trans-3-(2-(5,6,7,8-tetrahydro-1,8-naphthyridin-2-yl)ethyl)cyclobutyl)homoserine], under 50 nM; to `O=C(O)C(CCO[C@H]1C[C@H](CCc2ccc3c(n2)NCCC3)C1)NC(=O)C1(c2ccccc2)CC1` (stereo partly drawn) [Compound 82, N-(1-phenylcyclopropane-1-carbonyl)-O-(trans-3-(2-(5,6,7,8-tetrahydro-1,8-naphthyridin-2-yl)ethyl)cyclobutyl)homoserine], 250 to 1000 nM.
In the case of `O=C(O)C(CCO[C@H]1C[C@H](CCc2ccc3cccnc3n2)C1)Nc1ncnc2ccccc12` (stereo partly drawn) [Example 228, O-(trans-3-(2-(1,8-naphthyridin-2-yl)ethyl)cyclobutyl)-N-(quinazolin-4-yl)homoserine] it was under 50 nM; in that of `CC(CO[C@H]1C[C@H](CCc2ccc3c(n2)NCCC3)C1)C(NC(=O)OC(C)(C)C)C(=O)O` (single isomer, unassigned) [Example 145A, 2-((tert-butoxycarbonyl)amino)-3-methyl-4-(trans-3-(2-(5,6,7,8-tetrahydro-1,8-naphthyridin-2-yl)ethyl)cyclobutoxy)butanoic Acid], 250 to 1000 nM.
In the case of `O=C(NC(CCO[C@H]1C[C@H](CCc2ccc3c(n2)NCCC3)C1)C(=O)O)C1CCCC(F)(F)C1` (stereo partly drawn) [Compound 161, N-(3,3-difluorocyclohexane-1-carbonyl)-O-(trans-3-(2-(5,6,7,8-tetrahydro-1,8-naphthyridin-2-yl)ethyl)cyclobutyl)homoserine] it was under 50 nM; in that of `CC(C)(C)NC(=O)N[C@@H](CCO[C@H]1C[C@H](CCc2ccc3c(n2)NCCC3)C1)C(=O)O` [Compound 118, N-(tert-butylcarbamoyl)-O-(trans-3-(2-(5,6,7,8-tetrahydro-1,8-naphthyridin-2-yl)ethyl)cyclobutyl)homoserine], under 50 nM; in that of `O=C(NC(CCOCCCCc1ccc2c(n1)NCCC2)C(=O)O)c1cccc(F)c1Cl` (racemic) [Compound 1, N-(2-chloro-3-fluorobenzoyl)-O-(4-(5,6,7,8-tetrahydro-1,8-naphthyridin-2-yl)butyl)homoserine], under 50 nM.
On to `O=C(N[C@@H](CCO[C@H]1C[C@H](CCc2ccc3c(n2)NCCC3)C1)C(=O)O)c1cc(F)cc(F)c1` [Compound 28, N-(3,5-difluorobenzoyl)-O-(trans-3-(2-(5,6,7,8-tetrahydro-1,8-naphthyridin-2-yl)ethyl)cyclobutyl)homoserine], for which the 50% inhibitory concentration (IC50) was under 50 nM.
`CC(C)(CC#N)C(=O)NC(CCO[C@H]1C[C@H](CCc2ccc3c(n2)NCCC3)C1)C(=O)O` (stereo partly drawn) [Compound 108, N-(3-cyano-2,2-dimethylpropanoyl)-O-(trans-3-(2-(5,6,7,8-tetrahydro-1,8-naphthyridin-2-yl)ethyl)cyclobutyl)homoserine]: the IC50 was under 50 nM.
To `O=C(N[C@@H](CCO[C@H]1C[C@H](CCc2ccc3c(n2)NCCC3)C1)C(=O)O)c1cccc(Cl)c1` [Compound 20, N-(3-chlorobenzoyl)-O-(trans-3-(2-(5,6,7,8-tetrahydro-1,8-naphthyridin-2-yl)ethyl)cyclobutyl)homoserine] belongs under 50 nM.
Turning to `CCC(CC)CC(=O)N[C@@H](CCO[C@H]1C[C@@H](CCc2ccc3c(n2)NCCC3)C1)C(=O)O` [Compound 67, N-(3-ethylpentanoyl)-O-(cis-3-(2-(5,6,7,8-tetrahydro-1,8-naphthyridin-2-yl)ethyl)cyclobutyl)homoserine], the IC50 is 50 to 250 nM.
